Laboratory results taken from ChEMBL document CHEMBL3244250, “Bisamidines of 2,6-diaminoanthraquinone as antiamebic agents” (J Med Chem, 1978).
Active and inactive are the calls of the source. The rule behind the calls is not given here.

Key:
Entamoeba histolytica [1] = assay: Antimicrobial activity against Entamoeba histolytica NIH 200-mu hepatic forms infected in golden hamster assessed as survival rate administered qd for 5 days measured up to 14 days by microscopic analysis; type: functional; settings: for minimal effective dose: read-out: MED
Entamoeba histolytica [2] = assay: Antimicrobial activity against Entamoeba histolytica NIH 200-mu cecal forms infected in Wistar albino rat assessed as cure rate administered qd for 5 days by microscopic analysis; type: functional; settings: for minimal effective dose: 120 h, read-out: MED
Rattus norvegicus [3] = assay: Toxicity in Wistar albino rat assessed as general listlessness up to 150 mg/kg administered qd for 5 days; type: organism-based; parameters: dose 150 mg/kg; settings: in vivo, 120 h
Syrian golden hamster [4] = assay: Toxicity in golden hamster assessed as general listlessness up to 150 mg/kg administered qd for 5 days; type: organism-based, Mesocricetus auratus; parameters: dose 150 mg/kg; settings: in vivo, 120 h
Rattus norvegicus [5] = assay: Toxicity in Wistar albino rat assessed as reduction in water and food intake up to 150 mg/kg administered qd for 5 days; type: organism-based; parameters: dose 150 mg/kg; settings: in vivo, 120 h
Salmonella typhimurium = assay: Mutagenic activity in Salmonella typhimurium by Ames test; type: toxicity, organism-based; settings: salmonella enterica subsp. enterica serovar typhimurium
Syrian golden hamster [6] = assay: Toxicity in golden hamster assessed as reduction in water and food intake up to 150 mg/kg administered qd for 5 days; type: organism-based, Mesocricetus auratus; parameters: dose 150 mg/kg; settings: in vivo, 120 h
Rattus norvegicus [7] = assay: Toxicity in Wistar albino rat assessed as reduction in water and food intake administered qd for 5 days; type: organism-based; settings: in vivo, 120 h
Syrian golden hamster [8] = assay: Toxicity in golden hamster assessed as general listlessness administered qd for 5 days; type: organism-based, Mesocricetus auratus; settings: in vivo, 120 h
Syrian golden hamster [9] = assay: Toxicity in golden hamster assessed as reduction in water and food intake administered qd for 5 days; type: organism-based, Mesocricetus auratus; settings: in vivo, 120 h
Rattus norvegicus [10] = assay: Toxicity in Wistar albino rat assessed as general listlessness administered qd for 5 days; type: organism-based; settings: in vivo, 120 h

## O=[N+]([O-])c1cncn1CCN1CCOCC1 [NIMORAZOLE]
Entamoeba histolytica [1]
  minimal effective dose: 100 mg/kg
Entamoeba histolytica [2]
  minimal effective dose: 20 mg/kg

## CCN(CC)/C(C)=N/c1ccc2c(c1)C(=O)c1ccc(/N=C(\C)N(CC)CC)cc1C2=O
Rattus norvegicus [3]
  Activity: Non-toxic
Syrian golden hamster [4]
  Activity: Non-toxic
Entamoeba histolytica [1]
  minimal effective dose: 2.5 mg/kg
Entamoeba histolytica [2]
  minimal effective dose: 10 mg/kg
Rattus norvegicus [5]
  Activity: Non-toxic
Salmonella typhimurium
  Activity: Non-toxic
Syrian golden hamster [6]
  Activity: Non-toxic

## CN(C)/C=N\c1cccc2c1C(=O)c1cccc(/N=C\N(C)C)c1C2=O
Entamoeba histolytica [1]
  Activity: inactive
Entamoeba histolytica [2]
  Activity: inactive

## Cc1ncc([N+](=O)[O-])n1CCO [METRONIDAZOLE]
Entamoeba histolytica [1]
  minimal effective dose: 10 mg/kg
Entamoeba histolytica [2]
  minimal effective dose: 10 mg/kg

## CCN(CC)/C(C)=N\c1ccc(/N=C(/C)N(CC)CC)c2c1C(=O)c1ccccc1C2=O
Entamoeba histolytica [1]
  Activity: inactive
Entamoeba histolytica [2]
  Activity: inactive

## CCN(CC)/C(=N/c1ccc2c(c1)C(=O)c1ccc(/N=C(\C3CC3)N(CC)CC)cc1C2=O)C1CC1
Entamoeba histolytica [1]
  Activity: inactive
Entamoeba histolytica [2]
  minimal effective dose: 20 mg/kg

## O=C1c2ccc(/N=C(\c3ccccc3)N3CCCCC3)cc2C(=O)c2ccc(/N=C(\c3ccccc3)N3CCCCC3)cc21
Entamoeba histolytica [1]
  Activity: inactive
Entamoeba histolytica [2]
  minimal effective dose: 10 mg/kg

## CN/C(C)=N/c1ccc2c(c1)C(=O)c1ccc(/N=C(\C)NC)cc1C2=O
Rattus norvegicus [3]
  Activity: Non-toxic
Syrian golden hamster [4]
  Activity: Non-toxic
Entamoeba histolytica [1]
  Activity: inactive
Entamoeba histolytica [2]
  minimal effective dose: 10 mg/kg
Rattus norvegicus [5]
  Activity: Non-toxic
Syrian golden hamster [6]
  Activity: Non-toxic

## C/C(=N/c1cccc2c1C(=O)c1cccc(/N=C(/C)N(C)C)c1C2=O)N(C)C
Entamoeba histolytica [1]
  Activity: inactive
Entamoeba histolytica [2]
  Activity: inactive

## CC/C(=N\c1ccc2c(c1)C(=O)c1ccc(/N=C(\CC)N3CCN(C)CC3)cc1C2=O)N1CCN(C)CC1
Rattus norvegicus [3]
  Activity: Non-toxic
Syrian golden hamster [4]
  Activity: Non-toxic
Entamoeba histolytica [1]
  Activity: inactive
Entamoeba histolytica [2]
  minimal effective dose: 20 mg/kg
Rattus norvegicus [5]
  Activity: Non-toxic
Syrian golden hamster [6]
  Activity: Non-toxic

## CC(C)C/C(=N\c1ccc2c(c1)C(=O)c1ccc(/N=C(\CC(C)C)N(C)C)cc1C2=O)N(C)C
Entamoeba histolytica [1]
  minimal effective dose: 50 mg/kg
Entamoeba histolytica [2]
  minimal effective dose: 20 mg/kg

## CCCCCCCCN(C)/C=N/c1ccc2c(c1)C(=O)c1ccc(/N=C/N(C)CCCCCCCC)cc1C2=O
Rattus norvegicus [7]
  Activity: Toxic
Syrian golden hamster [8]
  Activity: Toxic
Entamoeba histolytica [1]
  Activity: inactive
Entamoeba histolytica [2]
  minimal effective dose: 50 mg/kg
Syrian golden hamster [9]
  Activity: Toxic
Rattus norvegicus [10]
  Activity: Toxic

## CCS(=O)(=O)CCn1c([N+](=O)[O-])cnc1C [TINIDAZOLE]
Entamoeba histolytica [1]
  minimal effective dose: 25 mg/kg
Entamoeba histolytica [2]
  minimal effective dose: 5 mg/kg

## CCC/C(=N\c1ccc2c(c1)C(=O)c1ccc(/N=C(\CCC)N(C)C)cc1C2=O)N(C)C
Entamoeba histolytica [1]
  minimal effective dose: 50 mg/kg
Entamoeba histolytica [2]
  minimal effective dose: 20 mg/kg

## C/C(=N\c1ccc2c(c1)C(=O)c1ccc(/N=C(\C)N3CCCCC3)cc1C2=O)N1CCCCC1
Rattus norvegicus [3]
  Activity: Non-toxic
Syrian golden hamster [4]
  Activity: Non-toxic
Entamoeba histolytica [1]
  minimal effective dose: 100 mg/kg
Entamoeba histolytica [2]
  minimal effective dose: 50 mg/kg
Rattus norvegicus [5]
  Activity: Non-toxic
Syrian golden hamster [6]
  Activity: Non-toxic

## C/C(N)=N\c1ccc2c(c1)C(=O)c1ccc(/N=C(\C)N)cc1C2=O
Rattus norvegicus [3]
  Activity: Non-toxic
Syrian golden hamster [4]
  Activity: Non-toxic
Entamoeba histolytica [1]
  Activity: inactive
Entamoeba histolytica [2]
  minimal effective dose: 10 mg/kg
Rattus norvegicus [5]
  Activity: Non-toxic
Syrian golden hamster [6]
  Activity: Non-toxic

## CCCCN(C)/C(CC)=N/c1ccc2c(c1)C(=O)c1ccc(/N=C(\CC)N(C)CCCC)cc1C2=O
Rattus norvegicus [3]
  Activity: Non-toxic
Syrian golden hamster [4]
  Activity: Non-toxic
Entamoeba histolytica [1]
  minimal effective dose: 50 mg/kg
Entamoeba histolytica [2]
  minimal effective dose: 20 mg/kg
Rattus norvegicus [5]
  Activity: Non-toxic
Syrian golden hamster [6]
  Activity: Non-toxic

## O=C1c2ccc(/N=C/N3CCCCC3)cc2C(=O)c2ccc(/N=C/N3CCCCC3)cc21
Rattus norvegicus [7]
  Activity: Toxic
Syrian golden hamster [8]
  Activity: Toxic
Entamoeba histolytica [1]
  minimal effective dose: 100 mg/kg
Entamoeba histolytica [2]
  minimal effective dose: 20 mg/kg
Syrian golden hamster [9]
  Activity: Toxic
Rattus norvegicus [10]
  Activity: Toxic

## O=C1c2ccc(N/C3=N/CCCCCC3)cc2C(=O)c2ccc(N/C3=N/CCCCCC3)cc21
Rattus norvegicus [3]
  Activity: Non-toxic
Syrian golden hamster [4]
  Activity: Non-toxic
Entamoeba histolytica [1]
  Activity: inactive
Entamoeba histolytica [2]
  minimal effective dose: 20 mg/kg
Rattus norvegicus [5]
  Activity: Non-toxic
Syrian golden hamster [6]
  Activity: Non-toxic

## CC/C(=N\c1ccc2c(c1)C(=O)c1ccc(/N=C(\CC)N3CCCCC3)cc1C2=O)N1CCCCC1
Rattus norvegicus [3]
  Activity: Non-toxic
Syrian golden hamster [4]
  Activity: Non-toxic
Entamoeba histolytica [1]
  Activity: inactive
Entamoeba histolytica [2]
  minimal effective dose: 50 mg/kg
Rattus norvegicus [5]
  Activity: Non-toxic
Syrian golden hamster [6]
  Activity: Non-toxic

## CN(C)/C=N/c1ccc2c(c1)C(=O)c1ccccc1C2=O
Rattus norvegicus [7]
  Activity: Toxic
Syrian golden hamster [8]
  Activity: Toxic
Entamoeba histolytica [1]
  Activity: inactive
Entamoeba histolytica [2]
  Activity: inactive
Syrian golden hamster [9]
  Activity: Toxic
Rattus norvegicus [10]
  Activity: Toxic

## CN(C)/C(=N/c1ccc2c(c1)C(=O)c1ccc(/N=C(\C3CCC3)N(C)C)cc1C2=O)C1CCC1
Entamoeba histolytica [1]
  minimal effective dose: 50 mg/kg
Entamoeba histolytica [2]
  minimal effective dose: 20 mg/kg
Salmonella typhimurium
  Activity: Non-toxic

## CC/C(N)=N\c1ccc2c(c1)C(=O)c1ccc(/N=C(/N)CC)cc1C2=O
Rattus norvegicus [3]
  Activity: Non-toxic
Syrian golden hamster [4]
  Activity: Non-toxic
Entamoeba histolytica [1]
  Activity: inactive
Entamoeba histolytica [2]
  Activity: inactive
Rattus norvegicus [5]
  Activity: Non-toxic
Syrian golden hamster [6]
  Activity: Non-toxic

## CN(C)/C(=N/c1ccc2c(c1)C(=O)c1ccc(/N=C(\C3CC3)N(C)C)cc1C2=O)C1CC1
Entamoeba histolytica [1]
  minimal effective dose: 50 mg/kg
Entamoeba histolytica [2]
  minimal effective dose: 10 mg/kg
Salmonella typhimurium
  Activity: Non-toxic

## C/C(=N\c1ccc2c(c1)C(=O)c1ccc(/N=C(\C)N(C)C)cc1C2=O)N(C)C
Rattus norvegicus [3]
  Activity: Non-toxic
Syrian golden hamster [4]
  Activity: Non-toxic
Entamoeba histolytica [1]
  minimal effective dose: 2.5 mg/kg
Entamoeba histolytica [2]
  minimal effective dose: 5 mg/kg
Rattus norvegicus [5]
  Activity: Non-toxic
Salmonella typhimurium
  Activity: Non-toxic
Syrian golden hamster [6]
  Activity: Non-toxic

## CN(C)/C(=N/c1ccc2c(c1)C(=O)c1ccc(/N=C(\c3ccc(Cl)cc3)N(C)C)cc1C2=O)c1ccc(Cl)cc1
Entamoeba histolytica [1]
  minimal effective dose: 50 mg/kg
Entamoeba histolytica [2]
  minimal effective dose: 20 mg/kg
Salmonella typhimurium
  Activity: Non-toxic

## CCN(CC)/C(=N/c1ccc2c(c1)C(=O)c1ccc(/N=C(/N(CC)CC)C(C)(C)C)cc1C2=O)C(C)(C)C
Entamoeba histolytica [1]
  minimal effective dose: 50 mg/kg
Entamoeba histolytica [2]
  minimal effective dose: 20 mg/kg

## CC(C)N(/C=N/c1ccc2c(c1)C(=O)c1ccc(/N=C/N(C(C)C)C(C)C)cc1C2=O)C(C)C
Rattus norvegicus [7]
  Activity: Toxic
Syrian golden hamster [8]
  Activity: Toxic
Entamoeba histolytica [1]
  minimal effective dose: 100 mg/kg
Entamoeba histolytica [2]
  minimal effective dose: 20 mg/kg
Syrian golden hamster [9]
  Activity: Toxic
Rattus norvegicus [10]
  Activity: Toxic

## CN(C)/C=N\c1ccc(/N=C\N(C)C)c2c1C(=O)c1ccccc1C2=O
Entamoeba histolytica [1]
  Activity: inactive
Entamoeba histolytica [2]
  Activity: inactive

## CCN(C(C)=O)/C(C)=N/c1ccc2c(c1)C(=O)c1ccc(/N=C(\C)N(CC)C(C)=O)cc1C2=O
Rattus norvegicus [3]
  Activity: Non-toxic
Syrian golden hamster [4]
  Activity: Non-toxic
Entamoeba histolytica [1]
  Activity: inactive
Entamoeba histolytica [2]
  Activity: inactive
Rattus norvegicus [5]
  Activity: Non-toxic
Syrian golden hamster [6]
  Activity: Non-toxic

## CCN/C(C)=N/c1ccc2c(c1)C(=O)c1ccc(/N=C(\C)NCC)cc1C2=O
Rattus norvegicus [3]
  Activity: Non-toxic
Syrian golden hamster [4]
  Activity: Non-toxic
Entamoeba histolytica [1]
  Activity: inactive
Entamoeba histolytica [2]
  minimal effective dose: 10 mg/kg
Rattus norvegicus [5]
  Activity: Non-toxic
Syrian golden hamster [6]
  Activity: Non-toxic

## CC/C(=N\c1ccc2c(c1)C(=O)c1ccc(/N=C(\CC)N(C)C)cc1C2=O)N(C)C
Rattus norvegicus [3]
  Activity: Non-toxic
Syrian golden hamster [4]
  Activity: Non-toxic
Entamoeba histolytica [1]
  minimal effective dose: 2.5 mg/kg
Entamoeba histolytica [2]
  minimal effective dose: 10 mg/kg
Rattus norvegicus [5]
  Activity: Non-toxic
Syrian golden hamster [6]
  Activity: Non-toxic

## CN(C)/C=N/c1ccc2c(c1)C(=O)c1ccc(/N=C/N(C)C)cc1C2=O
Rattus norvegicus [7]
  Activity: Toxic
Syrian golden hamster [8]
  Activity: Toxic
Entamoeba histolytica [1]
  minimal effective dose: 10 mg/kg
Entamoeba histolytica [2]
  minimal effective dose: 20 mg/kg
Syrian golden hamster [9]
  Activity: Toxic
Rattus norvegicus [10]
  Activity: Toxic
